Assay results reported in patent publication US6194416A, “Heterocyclic compounds and their use” (Eli Lilly and Company, priority 1997, dated 2001).

Assays:
[1] = biological target: muscarinic acetylcholine receptors; test: Inhibition of specific binding of 3H-Oxotremorine-M (3H-Oxo) to rat cortex membranes; design: species or system male Wistar rats; settings: 1.0 nM 3H-Oxotremorine, 30 min, 25° C., pH 7.4
Excerpt: The pharmacological properties of the compounds of the invention can be illustrated by determining their capability to inhibit the specific binding of ^3 H-Oxotremorine-M (^3 H-Oxo). Birdsdall N. J. M., Hulme E. C., and Burgen A. S. V. (1980). "The Character of Muscarinic Receptors in Different Regions of the Rat Brain". Proc. Roy. Soc. London (Series B) 207,1.
^3 H-Oxo labels muscarinic receptor in the CNS (with a preference for agonist domains of the receptors). Three different sites are labeled by ^3 H-Oxo. […] Using the present experimental conditions only the high and medium affinity sites are determined.
The inhibitory effects of compounds on ^3 H-oxo binding reflects the affinity for muscarinic acetylcholine receptors.
(§1) All preparations are performed at 0-4° C. unless otherwise indicated. Fresh cortex (0.1-1 g) from male Wistar rats (150-250 g) is homogenized for 5-10 s in 10 mL 20 nM Hepes pH: 7.4, with an Ultra-Turrax homogenizer. The homogenizer is rinsed with 10 mL of buffer and the combined suspension centrifuged for 15 min. at 40,000×g. The pellet is washed three times with buffer. In each step the pellet is homogenized as before in 2×10 mL of buffer and centrifuged for 10 min. at 40,000×g.
The final pellet is homogenized in 20 mM Hepes pH: 7.4 (100 mL per g of original tissue) and used for binding assay. Aliquots of 0.5 mL is added 25 μL of test solution and 25 μL of ^3 H-Oxotremorine (1.0 nM, final concentration) mixed and incubated for 30 min. at 25° C. Non-specific binding is determined in triplicate using arecoline (1 μg/mL, final concentration) as the test substance. After incubation samples are added 5 mL of ice-cold buffer and poured directly onto Whatman GF/C glass fiber filters under suction and immediately washed 2 times with 5 mL of ice-cold buffer. The amount of radioactivity on the filters are determined by conventional liquid scintillation counting. Specific binding is total binding minus non specific binding.
Test substances are dissolved in 10 mL water (if necessary heated on a steam-bath for less than 5 min.) at a concentration of 2.2 mg/mL. 25-75% inhibition of specific binding must be obtained before calculation of IC50. The test value will be given as IC50 (the concentration (nM) of the test substance which inhibits the specific binding of ^3 H-oxo by 50%). IC50 =(applied test substance concentration) x([…])nM where Co is specific binding in control assays and Cx is the specific binding in the test assay. (The calculations assume normal mass-action kinetics).

[2] = biological target: T1, muscarinic receptors (M1-site, pirenzepine sensitive site) (Rattus norvegicus, UniProt P08482); test: Inhibition of 3HPRZ (pirenzepine, [N-methyl-3H]) binding to rat cerebral cortex membranes; design: species or system male Wistar rats; settings: rat cerebral cortex, 1.0 nM 3HPRZ, 60 min, 20° C., pH 7.4; read-out: 3HPRZ IC50
T1 construct: from tissue; host or cells: cerebral cortex membranes of male Wistar rats
T1 sequence (P08482 1-460): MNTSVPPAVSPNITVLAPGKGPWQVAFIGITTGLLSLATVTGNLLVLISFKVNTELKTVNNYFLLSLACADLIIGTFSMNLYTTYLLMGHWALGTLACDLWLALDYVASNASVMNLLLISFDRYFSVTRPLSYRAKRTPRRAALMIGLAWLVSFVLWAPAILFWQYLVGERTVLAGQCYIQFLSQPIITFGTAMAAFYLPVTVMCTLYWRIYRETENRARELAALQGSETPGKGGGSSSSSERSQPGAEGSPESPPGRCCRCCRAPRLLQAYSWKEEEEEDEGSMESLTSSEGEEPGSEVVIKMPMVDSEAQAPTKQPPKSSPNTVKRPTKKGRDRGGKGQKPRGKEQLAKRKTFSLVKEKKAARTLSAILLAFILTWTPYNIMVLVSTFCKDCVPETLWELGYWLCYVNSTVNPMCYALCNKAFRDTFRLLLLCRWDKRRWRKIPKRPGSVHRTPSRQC
Procedure: Furthermore the pharmacological properties of the compounds of the invention can also be illustrated by determining their capability to inhibit ^3 HPRZ (pirenzepine, [N-methyl-^3 H]) binding to rat cerebral cortex membranes.
Pirenzepine binds selectively to subtype of muscarinic receptors. Historically the type is named the M1 -site, whereas pirenzepine sensitive site would be more appropriate.
as §1, with “cortex ([…])” for “cortex (0.1-1 g)”, “rats (150-200” for “rats (150-250”, “20 mM” for “20 nM”, “with 2×10” for “with 10”, “in 3×10” for “in 2×10”
The final pellet is homogenized in 20 MM Hepes pH: 7.4 (100 mL per g of original tissue) and used for binding assay. Aliquots of 0.5 mL is added 20 μL of test solution and 25 μL of ^3 HPRZ (1.0 nM, final conc.), mixed and incubated for 60 min. at 20° C. Non-specific binding is determined in triplicate using atropine (1.0 μg/mL, final conc.) as the test substance. After incubation samples are added 5 mL of ice-cold buffer and poured directly onto Whatman GF/C glass fiber filters under suction and immediately washed 2 times with 5 mL of ice-cold buffer.
The amount of radioactivity on the filters are determined by conventional liquid scintillation counting. Specific binding is total binding minus non-specific binding.
Test substances are dissolved in 10 mL water, at a concentration of 0.22 mg/mL. 25-75% inhibition of specific binding must be obtained before calculation of IC50.
The test value will be given as IC50 (the concentration (nM) of the test substance which inhibits the specific binding of ^3 HPRZ by 50%). IC50 =(applied test substance concentration) x(Cx /Co -Cx)nM where Co is specific binding in control assays and Cx is the specific binding in the test assay. (The calculations assume normal mass-action kinetics).

[3] = biological target: nicotinic receptors; test: Nicotinic channel receptor binding: [3H]-cystine binding to crude synaptic membranes from whole rat brain; settings: 1.25 nM [3H-cystine], about 60 min, about 4° C.
Procedure: Nicotinic Channel Receptor Binding Protocol:
The activity of the compounds claimed herein at the nicotinic receptor can be accomplished by the following assay.
Binding of […] to nicotinic receptors was accomplished using crude synaptic membrane preparations from whole rat brain (Pabreza et al. Molecular Pharmacol., 1990, 39:9). Washed membranes were stored at about -80° C. prior to use. Frozen aliquots were slowly thawed and resuspended in 20 volumes of buffer (containing: […] NaCl, 5 mM KCl, 2 mM MgCl2, 2 mM Tris-Cl, ph 7.4 @4° C.). After centrifuging at 20,000×g for 15 minutes, the pellets were resuspended in about 30 volumes of buffer. Homogenate (containing about 125-150 ug protein) was added to tubes containing concentrations of test compound and [^3 H-cystine] (1.25 nM) in a final volume of 500 uL. Samples were incubated for about 60 minutes at about 4° C., then rapidly filtered through GF/B filters presoaked in 0.5% polyethylimine using 3×4 mL of ice cold buffer. The filters were counted.

[4] = test system: M1-sites of muscarinic receptors; settings: general statement; cited from earlier work
[5] = test system: M2-sites of muscarinic receptors; settings: general statement; cited from earlier work

| SMILES | IC50 [1] | IC50 [2] | Ki [3] | muscarinic subtype selectivity [4] | interaction with M2-sites [5] |
| --- | --- | --- | --- | --- | --- |
| c1cnc(O[C@H]2CN3CCC[C@@H]2C3)cn1 (relative stereo) [Compound 21, 2-[endo-(+,-)-6-(1-azabicyclo[3.2.1]octyloxy)]-pyrazine] | 26 nM | 123 nM | 130 nM | – | – |
| Clc1cncc(O[C@@H]2CN3CCC[C@H]2C3)n1 (relative stereo) [Compound 22, 6-Chloro-2-[endo-(+,-)-6-(1-azabicyclo[3.2.1]octyloxy)]-pyrazine] | 140 nM | 52 nM | 210 nM | – | – |
| C[N+](C)(C)CCOc1cnccn1 [Compound 27, 2-(2-Trimethylaminoethoxy)pyrazine iodide] | – | – | 110 nM | – | – |
| CN1CCN(CC(=O)N2c3ccccc3C(=O)Nc3cccnc32)CC1 [pirenzepine] | – | – | – | selective for M1 -sites | also interact with M2 -sites |
